Source: patent publication US20240390328A1, “PHARMACEUTICAL COMPOSITION CONTAINING AS ACTIVE INGREDIENT COMPOUND CONJUGATED TO G4 STRUCTURES OF CORONAVIRUSES FOR PREVENTION OR TREATMENT OF CORONAVIRUS INFECTIOUS DISEASES” (priority 2020, published 2024)
Like-named read-outs stand apart in the source and are kept apart here.

How the values were obtained:
SARS-COV-2 [1] = test: microbe, parasite or virus in culture; type: cell-based; conditions: for suppression of SARS-COV-2 infection (N protein expression), in words: 0.08 to 50 μM; for IC50: read-out: IC50, suppressing SARS-COV-2 infection (N protein expression)
HCoV-OC43 = HCoV-OC43 dose response curve analysis, virion production (plaque assay), HCT-8 cells; type: cell-based; conditions: 0.05 MOI, 72 hours after infection
N1-Mut-G4-3467 = type: biochemical, SARS-COV-2; conditions: N1-Mut-G4-3467, 5, 15, 25 and 50 μM
[2] = test system: SARS-COV-2 RNA G4, position 3467 (NsP3); test: CD thermal melting analysis, G4 No. 6; type: binding; conditions: G4 No. 6, position 3467, NsP3; 15 μM RNA G4, 30 μM compound
Description: (§1) For melting, the samples were heated at 25 to 95° C. at 2° C./min with a data pitch of 0.5° C. CD melting analyses were performed with and without G4-binding compounds. The ratio of RNA: G4-binding compound was set to a molar ratio of 1:2. 15 μM RNA G4 was treated with 30 μM G4-binding compound and incubated at room temperature in a buffer comprising 10 mM Tris-HCl (pH 7.5) and 100 mM KCl for 30 minutes. Ellipticity was measured at 265 nm. Thereafter, data were normalized and plotted in OriginPro 2017 to calculate Tm values.
(§2) In addition, 15 μM RNA G4 was treated with 30 μM compound and incubated, and a CD thermal melting curve of RNA G4 (15 μM) was obtained in the presence or absence of the G4-binding compound. Furthermore, the effect of G4-binding compounds on the stability of SARS-COV-2 G4 was confirmed by measuring the difference in melting temperature (ΔTm). The results are illustrated in FIGS. 6A and 6B.

[3] = test system: SARS-COV-2 RNA G4, position 28781 (Nucleocapsid protein); test: CD thermal melting analysis, G4 No. 22; type: binding; conditions: G4 No. 22, position 28781, Nucleocapsid protein; 15 μM RNA G4, 30 μM compound
Description: as §1, §2

N1-WT-G4-644 (Nsp1 G4) = test: In-vitro transcription/translation (IVT) analysis, EYFP reporter western blot, N1-WT-G4-644; type: biochemical, SARS-COV-2; conditions: N1-WT-G4-644, compound at 5 μM
[4] = test system: SARS-COV-2 RNA G4, position 10261 (NsP5); test: CD thermal melting analysis, G4 No. 10; type: binding; conditions: G4 No. 10, position 10261, NsP5; 15 μM RNA G4, 30 μM compound
Description: as §1, §2

SARS-COV-2 [5] = test: microbe, parasite or virus in culture; type: cell-based; conditions: Vero cells, read-out: IC50, virion production
[6] = test system: SARS-COV-2 RNA G4, position 1574 (NsP2); test: CD thermal melting analysis, G4 No. 4; type: binding; conditions: G4 No. 4, position 1574, NsP2; 15 μM RNA G4, 30 μM compound
Description: as §1, §2

N1-WT-G4-3467 (Nsp3 G4) = test: In-vitro transcription/translation (IVT) analysis, EYFP reporter western blot, N1-WT-G4-3467; type: biochemical, SARS-COV-2; conditions: N1-WT-G4-3467, compound at 50 μM
[7] = test system: SARS-COV-2 RNA G4, position 2714 (NsP2 + NsP3); test: CD thermal melting analysis, G4 No. 5; type: binding; conditions: G4 No. 5, position 2714, NsP2 + NsP3; 15 μM RNA G4, 30 μM compound
Description: as §1, §2

[8] = test system: SARS-COV-2 RNA G4, position 353 (NsP1); test: CD thermal melting analysis, G4 No. 1; type: binding; conditions: G4 No. 1, position 353, NsP1; 15 μM RNA G4, 30 μM compound
Description: as §1, §2

[9] = test system: SARS-COV-2 RNA G4, position 18296 (NsP12); test: CD thermal melting analysis, G4 No. 15; type: binding; conditions: G4 No. 15, position 18296, NsP12; 15 μM RNA G4, 30 μM compound
Description: as §1, §2

[10] = test system: SARS-COV-2 RNA G4, position 25197 (Surface glycoprotein); test: CD thermal melting analysis, G4 No. 19; type: binding; conditions: G4 No. 19, position 25197, Surface glycoprotein; 15 μM RNA G4, 30 μM compound
Description: as §1, §2

HEK293T cells = test: Cell viability analysis (EZ Cytox), HEK293T cells; type: cell-based, Human; conditions: at 75 µM, after 48 hours
Description: (§3) Human embryonic kidney (HEK293T) cells and Vero cells were maintained in high-glucose Dulbecco's Modified Eagle's Medium (DMEM) supplemented with 10% fetal bovine serum (FBS) and 1% penicillin-streptomycin, and cultured in a humidified incubator at 37° C. and 5% CO2.
(§4) Cytotoxicity was analyzed using an EZ Cytox assay kit (DogenBio, Korea). HEK293T and Vero cells were put into a 96-well plate at a density of 2×10^4 cells/well in a medium volume of 100 μl/well and cultured at 37° C. for 24 hours. After 24 hours, the cells were treated with the G4-binding compound at various concentrations (0.1, 0.5, 1, 2.5, 5.5, 7.5, 10, 25, 50, and 75 μM) and cultured at 37° C. for 24 hours or 48 hours. Cell viability (%) was calculated by measuring the absorbance value at 455 nm (Luminescence multi-mode microplate reader Synergy™ Neo2) and using the following Equation 1. All experiments were performed in triplicate, and cells untreated with the compound were used as a control. DMEM with the EZ Cytox reagent was used as a blank.
(§5) The toxicity of PDS and PhenDC3 was confirmed in HEK293T cells and Vero cells. The results are illustrated in FIGS. 7A to 7D.

N1-WT-G4-353 (Nsp1 G4) = test: In-vitro transcription/translation (IVT) analysis, EYFP reporter western blot, N1-WT-G4-353; type: biochemical, SARS-COV-2
[11] = test system: SARS-COV-2 RNA G4, position 14947 (NsP12); test: CD thermal melting analysis, G4 No. 12; type: binding; conditions: G4 No. 12, position 14947, NsP12; 15 μM RNA G4, 30 μM compound
Description: as §1, §2

[12] = test system: SARS-COV-2 RNA G4, position 28903 (Nucleocapsid protein); test: CD thermal melting analysis, G4 No. 23; type: binding; conditions: G4 No. 23, position 28903, Nucleocapsid protein; 15 μM RNA G4, 30 μM compound
Description: as §1, §2

[13] = test system: SARS-COV-2 RNA G4, position 26746 (Membrane protein); test: CD thermal melting analysis, G4 No. 21; type: binding; conditions: G4 No. 21, position 26746, Membrane protein; 15 μM RNA G4, 30 μM compound
Description: as §1, §2

[14] = test system: SARS-COV-2 RNA G4, position 4261 (NsP3); test: CD thermal melting analysis, G4 No. 8; type: binding; conditions: G4 No. 8, position 4261, NsP3; 15 μM RNA G4, 30 μM compound
Description: as §1, §2

[15] = test system: 25 G4s predicted for SARS-COV-2; test: CD thermal melting analysis, comparison of ΔTm over all G4s; type: binding
[16] = test system: SARS-COV-2 RNA G4, position 644 (NsP1); test: CD thermal melting analysis, G4 No. 2; type: binding; conditions: G4 No. 2, position 644, NsP1; 15 μM RNA G4, 30 μM compound
Description: as §1, §2

[17] = test system: SARS-COV-2 RNA G4, position 1463 (NsP2); test: CD thermal melting analysis, G4 No. 3; type: binding; conditions: G4 No. 3, position 1463, NsP2; 15 μM RNA G4, 30 μM compound
Description: as §1, §2

Vero cells = test: Cell viability analysis (EZ Cytox), Vero cells; type: cell-based; conditions: up to 75 μM after 48 hours
Description: as §3, §4, §5

[18] = Severe acute respiratory syndrome coronavirus 2, Vero cells, 0.0125 MOI, 24 hours

CN(C)c1ccc(Nc2c3ccc(NC(=O)CCN4CCCC4)cc3nc3cc(NC(=O)CCN4CCCC4)ccc23)cc1 [BRACO19, N-[9-[4-(dimethylamino)anilino]-6-(3-pyrrolidin-1-ylpropanoylamino)acridin-3-yl]-3-pyrrolidin-1-ylpropanamide]
suppression of SARS-COV-2 infection (N protein expression), in words (SARS-COV-2 [1]; Vero cells): suppressed SARS-COV-2 infection at high concentrations

CCC1=C(C)c2cc3[nH]c(cc4nc(cc5c(CC)c(C)c(cc1n2)n5C)C(C)=C4CCC(=O)O)c(CCC(=O)O)c3C [NMM, 3-[18-(2-carboxyethyl)-7,12-diethyl-3,8,13,17,22-pentamethyl-23H-porphyrin-2-yl]propanoic acid]
suppression of SARS-COV-2 infection (N protein expression), in words (SARS-COV-2 [1]; Vero cells): suppressed SARS-COV-2 infection at high concentrations
IC50 (HCoV-OC43): 2.1 µM

C[n+]1cc(NC(=O)c2ccc3ccc4ccc(C(=O)Nc5cc6ccccc6[n+](C)c5)nc4c3n2)cc2ccccc21 [PhenDC3, 2-N, 9-N-bis(1-methylquinolin-1-ium-3-yl)-1,10-phenanthroline-2,9-dicarboxamide]
EYFP expression, concentration-dependent suppression (N1-Mut-G4-3467): not suppressed
Tm in ° C. with compound [2]: 98.81 °C
ΔTm [2]: 33.25 °C
Tm in ° C. with compound [3]: 70.40 °C
ΔTm [3]: 5.7 °C
EYFP expression reduced by (N1-WT-G4-644 (Nsp1 G4)): 50%
Tm in ° C. with compound [4]: 63.49 °C
ΔTm [4]: 15.6 °C
IC50 (SARS-COV-2 [5]; 24 hours after infection): 24.5 µM
IC50 (SARS-COV-2 [5]; 48 hours after infection): 23.2 µM
Tm in ° C. with compound [6]: 47.74 °C
ΔTm [6]: −5.64 °C
reduction in EYFP expression (N1-WT-G4-3467 (Nsp3 G4)): 70%
Tm in ° C. with compound [7]: 91.7 °C
ΔTm [7]: 20.56 °C
Tm in ° C. with compound [8]: 82.00 °C
ΔTm [8]: 10.41 °C
Tm in ° C. with compound [9]: 86.32 °C
ΔTm [9]: 27.49 °C
Tm in ° C. with compound [10]: 57.51 °C
ΔTm [10]: −13.68 °C
reduction in viability, HEK293T cells (HEK293T cells): 25%
EYFP expression reduced by (N1-WT-G4-353 (Nsp1 G4); N1-WT-G4-353, compound at 50 μM): 90%
suppressing EYFP reporter expression (N1-WT-G4-353 (Nsp1 G4); N1-WT-G4-353, concentrations less than 50 μM): not effective
Tm in ° C. with compound [11]: 82.96 °C
ΔTm [11]: 25.75 °C
Tm in ° C. with compound [12]: 60.21 °C
ΔTm [12]: 3.1 °C
Tm in ° C. with compound [13]: 79.68 °C
ΔTm [13]: 17.02 °C
Tm in ° C. with compound [14]: 85.41 °C
ΔTm [14]: 35.1 °C
effect on stability of SARS-COV-2 G4 (ΔTm), in words ([15]; 15 μM RNA G4, 30 μM compound, FIGS. 6A and 6B): significantly stabilized most G4s
proportion of the G4s with ΔTm>20° C. ([15]; among the 25 G4s predicted for SARS-COV-2): 72%
number of G4s Destabilized ([15]; of the 25 SARS-COV-2 G4s): 2
Tm in ° C. with compound [16]: 71.44 °C
ΔTm [16]: 23.71 °C
Tm in ° C. with compound [17]: 91.3 °C
ΔTm [17]: 35.78 °C
cytotoxicity in Vero cells (Vero cells): no cytotoxicity was observed

C[n+]1ccccc1-c1c2nc(c(-c3cccc[n+]3C)c3ccc([nH]3)c(-c3cccc[n+]3C)c3nc(c(-c4cccc[n+]4C)c4ccc1[nH]4)C=C3)C=C2 [TMPyP2, 5,10,15,20-tetrakis(1-methylpyridin-1-ium-2-yl)-21,23-dihydroporphyrin]
IC50 (HCoV-OC43): 11.7 µM

C[n+]1ccc(-c2c3nc(c(-c4cc[n+](C)cc4)c4ccc([nH]4)c(-c4cc[n+](C)cc4)c4ccc([nH]4)c(-c4cc[n+](C)cc4)c4nc2C=C4)C=C3)cc1 [TMPyP4, 5,10,15,20-tetrakis(1-methylpyridin-1-ium-4-yl)-21,23-dihydroporphyrin]
IC50 (HCoV-OC43): 2.8 µM

CCN(CC)CCCC(C)Nc1ccnc2cc(Cl)ccc12 (stereo not drawn) [chloroquine, reference compound]
IC50 (SARS-COV-2 [1]; [18]): 9.63 µM

Cc1cccc(C)c1OCC(=O)N[C@@H](Cc1ccccc1)[C@@H](O)C[C@H](Cc1ccccc1)NC(=O)[C@H](C(C)C)N1CCCNC1=O [lopinavir, reference compound]
IC50 (SARS-COV-2 [1]; [18]): 12.1 µM

CCC(CC)COC(=O)[C@H](C)N[P@](=O)(OC[C@H]1O[C@@](C#N)(c2ccc3c(N)ncnn23)[C@H](O)[C@@H]1O)Oc1ccccc1 [remdesivir, reference compound]
IC50 (SARS-COV-2 [1]; Severe acute respiratory syndrome coronavirus 2, Vero, 24 h): 8.78 µM
